According to US20060293288A1, “Use of resolvins to treat gastrointestinal diseases” (priority 2005, published 2006):
Entries after “also recorded” stand apart in the source; their conditions may differ.

Legend:
[1] = tested on: leukocyte infiltration in zymosan-induced peritonitis; assay: zymosan-induced peritonitis, leukocyte (PMN) infiltration; format: in vivo, mice; conditions: for effect on PMN infiltration/migration into the peritoneum (in words): peritonitis model, mice; for relative potency in the peritonitis model: compared with RvE1 or indomethacin
Experimental: FIG. 1. (A) Inflammatory exudates from mice treated with EPA and aspirin generate RvE1 in vivo. (B) Inhibition of leukocyte infiltration in zymosan-induced peritonitis treated with EPA and aspirin. Mice were pre-treated for 30 min by aspirin (0.5 mg) intraperitoneally followed by EPA (0.3 mg) and zymosan. Peritoneal lavages were collected at 2 h and cells were enumerated. (n=4, *p<0.05 compared with vehicle control, **p<0.05 compared with aspirin alone). (C) Inhibition of leukocyte infiltration in zymosan-induced peritonitis. RvE1 (100 ng) was injected intravenously into tail veins followed by zymosan A into the peritoneum. Mice were sacrificed, and peritoneal lavages were collected (2 h) and cells enumerated (n=3, *p<0.01 compared with vehicle control).
Inflammatory exudates were initiated with intraperitoneal injection of 1 ml zymosan A (1 mg/ml) with 6-8-wk-old male FvB mice. Mice were pre-treated by aspirin (0.5 mg) i.p. followed by EPA (0.3 mg) and zymosan. Peritoneal lavages were collected at 2 h and cells were enumerated. Cell-free exudates were extracted by C18 solid phase extraction with deuterium-LTB4 (Cascade, UK) as an internal standard for LC-UV-MS/MS analysis using a Finnigan LCQ liquid chromatography ion trap tandem mass spectrometer equipped with a LUNA C18-2 (100×2 mm×5 μm) column and UV diode array detector using mobile phase (methanol:water:acetate at 65:35:0.01) from 0 to 8 min, ramped to methanol 8 to 30 min, with a 0.2 ml/min flow rate.

gastric damage = conditions: induced by dextran sodium sulfate or aspirin; cited from earlier work
TNBS-induced colitis [2] = assay: grading of histologic change of the colon in TNBS colitis; format: in vivo, BALB/c mice; conditions: day 4, 1.0 μg/mouse i.p.
Experimental: FIG. 3. Colon histopathology from RvE1 or ATLa-treated mice. Colon section of vehicle-treated mouse (A), 4 days after the induction of colitis by TNBS (B), mice received RvE1 (C) and ATLa (D). (E) Histological scores of the colon of mice receiving vehicle, TNBS only, TNBS plus RvE1, or TNBS plus ATLa. *p<0.05 and **p<0.01, respectively.
To generate a more chronic T cell-mediated inflammation, BALB/c mice were sensitized with 150 μl of the haptenating agent 2,4,6-trinitrobenzene sulfonic acid (TNBS; Sigma-Aldrich, St. Louis, Mo.) of 2.5% in 50% ethanol by skin painting on day −7. On day 0, 150 μl of 1% TNBS in 50% ethanol was administered intrarectally via a 3.5 F catheter under anesthesia with tribromoethanol. To ensure distribution of the TNBS within the entire colon and cecum, mice were held in a vertical position for 1 min after the instillation. On day 4, mice were killed and immunopathologic characterization was performed as previously described (23).
The degree of inflammation on microscopic cross sections of the colon was graded semi quantitatively. Severity of colitis was assessed based on five histologic criteria, each graded on a […] (0=absent, 1=mild, 2=moderate, 3=severe): mononuclear inflammation, neutrophilic infiltration/crypt abscesses, crypt hyperplasia, mucosal injury/ulceration, and mucosal hypervascularity. The five scores were summed to give a total score. […]

[3] = tested on: dextran sodium sulfate (DSS)-induced colitis; conditions: cited from earlier work
TNBS-induced colitis [4] = assay: TNBS-induced colitis (mortality, body weight, colon macroscopy); format: in vivo, BALB/c mice
Experimental: (C) Macroscopic appearance of the colon of mice receiving vehicle, TNBS only, or mice receiving RvE1 (0.05 mg/kg).
RvE1 was administered intraperitoneally (1.0 μg/mouse; 50 μg/kg) on the indicated days before the induction of colitis (prevention mode). Aspirin-triggered lipoxin A4 analog (ATLa; 15-epi-16-(p-fluoro)phenoxy-LXA4) was given at the same dose as a direct comparison with RvE1.

anti-TNBS IgG = assay: detection of TNP-specific antibodies in serum with ELISA; format: in vivo, mice; conditions: day 4
Source text: (§1) FIG. 4. RvE1 reduces leukocyte infiltration and pro-inflammatory mediators in colitis. (A) Myeloperoxidase (MPO) activity of colons of mice treated with TNBS alone or mice given RvE1. *p<0.0001 versus mice treated with TNBS alone. (B) Anti-TNBS IgG level in serum on day 4 from mice treated with TNBS alone or receiving RvE1 as noted. *p<0.01. (C) Quantitative real time PCR analysis of mRNA expression of inflammatory mediators in colons obtained on day 4 from control mice (white column), mice treated with TNBS alone (black column) or receiving TNBS plus RvE1 (gray column). *p<0.01.
Sera were collected on day 4, and anti-trinitrophenyl residue (TNP) antibodies were determined by ELISA as previously described with a minor modification (25). Briefly, 100 mg of OVA was dissolved in 4 ml of 0.05M carbonate-bicarbonate buffer at pH 9.6 followed by adding 1 ml of TNBS 5% solution and incubating for 2 h at room temperature. TNP-OVA was dialyzed in PBS and then stored at −80° C. until use. For the detection of TNP-specific antibodies, TNP-OVA was dissolved at the concentration of 0.1 mg/ml in 0.05M carbonate-bicarbonate buffer at pH 9.6 and 100 μl was placed in each well of 96-well microtiter plates for coating. After blocking with 1% bovine serum albumin in PBS, plates were incubated with appropriately diluted serum. […]

[5] = tested on: Myeloperoxidase (MPO) activity of colons; assay: myeloperoxidase (MPO) assay of colon tissue in TNBS colitis; format: in vivo, mice; conditions: versus control vehicle
Source text: as §1
Each tissue sample was assessed for PMN content and infiltration. Tissues were homogenized in potassium phosphate buffer (pH 6.0) containing 0.5% hexadecyltrimethylammonium bromide, followed by three cycles of sonication and freeze-thawing. The particulate matter was removed by centrifugation (16,000 g for 20 min), and 75 μl of supernatant was added to 925 μl of potassium phosphate buffer (pH 6.0) containing 0.2 mg/ml o-dianisidine dihydrochloride (Sigma, St. Louis, Mo.) and 0.0006% hydrogen peroxide. Changes in OD were monitored at 460 nm at 25° C., at 30- and 90-s intervals. Calibration curve for conversion of MPO activities to PMN number was performed as in ref. 24.

[6] = tested on: mRNA expression of inflammatory mediators in colons; assay: quantitative real-time PCR of inflammatory mediators in colon; format: in vivo, mice; conditions: day 4, TNBS colitis
Source text: as §1
Total RNA from colon was prepared using Trizol™ reagent (Life Technologies, Rockville, Md.). Real-time PCR was performed using the LightCycler FastStart DNA Master SYBR Green I (Roche Diagnostics GmbH, Mannheim, Germany) according to manufacturer's protocol. Primers for IFN-γ, IL-12p40, TNF-α, IL-4, TGF-β, IL-10, iNOS and glyceraldehyde-3-phosphate dehydrogenase (GAPDH) were designed as described (26). Primers for COX-2 were designed as follows: 5′-[…]-3′ and 5′-[…]-3′. Quantities of specific mRNA in the sample were measured according to the corresponding gene-specific standard curve. The relative expression of each gene was normalized against the housekeeping gene GAPDH.

COc1ccc2c(c1)c(CC(=O)O)c(C)n2C(=O)c1ccc(Cl)cc1 [indomethacin, reference compound]
reduction of leukocyte numbers in the exudate ([1]; zymosan peritonitis, dose not given): approximately 20%

CCCCC[C@@H](O)/C=C/C=C\C=C\C=C\[C@@H](O)[C@@H](O)CCCC(=O)O [15-epi-lipoxin A4]
protection against gastric damage (gastric damage): protective

O=C(O)CCC[C@H](O)[C@H](O)/C=C/C=C/C=C\C=C\[C@H](O)COc1ccc(F)cc1 [ATLa, 15-epi-16-(p-fluoro)phenoxy-LXA4, reference compound]
histologic features of colitis (TNBS-induced colitis [2]): dramatic protection
protection against DSS-induced colitis [3]: protective

CC/C=C\C[C@H](O)/C=C/C=C/C=C/C(O)C/C=C\C/C=C\CCC(=O)O (stereo partly drawn) [10,17 di-HDHA, 10,17S-dihydroxy-docosa-4Z,7Z,11E,13,15E,19Z-hexaenoic acid]
effect on PMN infiltration/migration into the peritoneum (in words) [1]: inhibited both PMN migration into the peritoneum

CC[C@@H](O)/C=C/C=C\C[C@@H](O)/C=C/C=C/C=C\[C@@H](O)CCCC(=O)O [RvE1, 5S,12R,18R-trihydroxy-6Z,8E,10E,14Z,16E-eicosapentaenoic acid]
protection against the development of TNBS colitis (TNBS-induced colitis [4]; 0.05 mg/kg): complete protection
overall mortality (TNBS-induced colitis [4]; RvE1 1.0 μg/mouse (0.05 mg/kg) i.p., TNBS alone 62.5%): 25%
body weight loss (TNBS-induced colitis [4]; RvE1 1 μg/mouse or 0.05 mg/kg, versus TNBS with vehicle): less weight loss
shortening and thickening of the colon (TNBS-induced colitis [4]; RvE1 0.05 mg/kg): did not exhibit significant shortening and thickening of the colon
survival rate (TNBS-induced colitis [4]; versus non-treated mice): significantly higher
serum anti-TNBS IgG level (anti-TNBS IgG): decreased
myeloperoxidase (MPO) activity in colon [5]: significantly lower levels
reduction of leukocyte infiltration ([1]; 100 ng/mouse intravenously, zymosan peritonitis, lavage at 2 h): 50%
relative potency in the peritonitis model [1]: more potent than indomethacin
COX-2 mRNA level in colon [6]: significant reduction
IFN-γ mRNA level in colon [6]: direct effects were not observed
IL-4 mRNA level in colon [6]: direct effects were not observed
IL-10 mRNA level in colon [6]: direct effects were not observed
IL-12p40 mRNA level in colon [6]: significant reduction
TGF-β mRNA level in colon [6]: did not show significant differences
TNF-α mRNA level in colon ([6]; 0.05 mg/kg): significant reduction; also recorded: dramatic decrease
iNOS mRNA level in colon ([6]; 0.05 mg/kg): significant reduction; also recorded: dramatic decrease
histologic features of colitis (TNBS-induced colitis [2]): less severe histologic features of colitis

CC[C@@H](O)/C=C/C=C\C/C=C\C/C=C\C/C=C\CCCC(=O)O [18R-HEPE, reference compound]
relative potency in the peritonitis model [1]: much less potent

CC/C=C\C[C@H](O)/C=C/C=C\C=C\[C@@H](O)C/C=C\CC#CCCC(=O)O [4,5-dehydro 10,17S-dihydroxy DHA]
inhibition of the PMN infiltration ([1]; 100 ng dose, murine zymosan A-induced peritonitis): 40%

CCC(O)/C=C/C=C\C/C=C\C/C=C\C=C\[C@@H](O)CCCC(=O)O (mixture of isomers) [5S,18(+/−)-diHEPA]
relative potency in the peritonitis model [1]: equipotent to Resolvin E1
effect on PMN infiltration/migration into the peritoneum (in words) [1]: downregulation of PMN infiltration
